The test deals with T1, F508del (Homo sapiens, UniProt P13569, DEL508-508).
T1 construct: expressed in transfected cells
T1 sequence (P13569 with tags, fused parts or gaps DEL508-508): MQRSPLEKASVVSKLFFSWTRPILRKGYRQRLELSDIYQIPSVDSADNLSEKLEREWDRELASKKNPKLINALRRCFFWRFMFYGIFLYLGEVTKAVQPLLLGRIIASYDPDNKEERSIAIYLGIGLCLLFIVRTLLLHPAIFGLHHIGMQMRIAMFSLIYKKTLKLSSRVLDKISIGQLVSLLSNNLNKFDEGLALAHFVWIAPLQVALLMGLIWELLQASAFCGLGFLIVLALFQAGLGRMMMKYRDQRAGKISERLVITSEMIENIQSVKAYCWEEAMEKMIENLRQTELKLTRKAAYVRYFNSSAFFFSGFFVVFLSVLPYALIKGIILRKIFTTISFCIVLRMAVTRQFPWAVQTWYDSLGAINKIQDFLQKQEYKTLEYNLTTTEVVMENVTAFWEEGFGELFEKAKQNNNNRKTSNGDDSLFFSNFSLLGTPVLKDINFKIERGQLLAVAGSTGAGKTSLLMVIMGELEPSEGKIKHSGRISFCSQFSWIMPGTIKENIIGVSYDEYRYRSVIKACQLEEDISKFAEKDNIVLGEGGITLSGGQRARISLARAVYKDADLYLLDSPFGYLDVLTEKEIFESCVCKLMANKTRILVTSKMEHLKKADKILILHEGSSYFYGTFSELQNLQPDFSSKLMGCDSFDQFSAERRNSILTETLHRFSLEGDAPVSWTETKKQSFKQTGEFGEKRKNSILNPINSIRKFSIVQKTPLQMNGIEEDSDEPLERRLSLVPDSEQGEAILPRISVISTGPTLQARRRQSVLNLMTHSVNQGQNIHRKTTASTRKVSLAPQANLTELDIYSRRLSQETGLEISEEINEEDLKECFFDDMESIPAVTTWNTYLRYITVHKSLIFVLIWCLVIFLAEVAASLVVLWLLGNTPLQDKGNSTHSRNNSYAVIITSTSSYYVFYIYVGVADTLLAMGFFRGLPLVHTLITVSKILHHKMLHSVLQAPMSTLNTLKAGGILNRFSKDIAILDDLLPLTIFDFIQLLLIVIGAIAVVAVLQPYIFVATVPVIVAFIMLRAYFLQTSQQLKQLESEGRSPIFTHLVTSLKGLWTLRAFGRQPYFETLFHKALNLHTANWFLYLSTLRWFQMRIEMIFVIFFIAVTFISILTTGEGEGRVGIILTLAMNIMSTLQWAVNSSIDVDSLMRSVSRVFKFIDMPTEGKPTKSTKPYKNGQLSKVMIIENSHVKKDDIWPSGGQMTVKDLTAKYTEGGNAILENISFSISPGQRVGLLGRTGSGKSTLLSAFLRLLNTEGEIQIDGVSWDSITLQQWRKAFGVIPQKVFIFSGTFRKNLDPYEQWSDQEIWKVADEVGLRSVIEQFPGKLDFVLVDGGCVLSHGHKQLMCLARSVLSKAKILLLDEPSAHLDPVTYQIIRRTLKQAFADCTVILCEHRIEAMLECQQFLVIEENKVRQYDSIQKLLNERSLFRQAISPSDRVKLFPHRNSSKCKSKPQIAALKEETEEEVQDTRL
As to the kind of experiment: Protocol 1: membrane potential optical assay (FLIPR III, voltage sensing dye), identification of potentiator compounds. The settings on record: Table 3, compounds of Table 1. The format is cell-based. Put shortly:
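Membrane potential in forskolin-activated, temperature-rescued F508del NIH 3T3 cells is followed with a voltage-sensing dye on FLIPR III. A chloride ion gradient created at the single addition step provides the driving force, after prior compound treatment.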
Take `Cc1cc(F)ccc1-c1ccc(C(=O)NS(=O)(=O)c2cccc(N)n2)c(N2CC(C)CC2(C)C)n1` (centres unmarked) [Compound 822, N-[(6-amino-2-pyridyl)sulfonyl]-6-(4-fluoro-2-methyl-phenyl)-2-(2,2,4-trimethylpyrrolidin-1-yl)pyridine-3-carboxamide]: the EC30 entry is recorded as “+++ (“+++” means <3 uM)”.

In the case of `Cc1cc(C)c(Oc2nc(C3=CCCCCC3)ccc2C(=O)NS(=O)(=O)c2cccc(N)n2)c(C)c1` [Compound 1513, N-[(6-amino-2-pyridyl)sulfonyl]-6-(cyclohepten-1-yl)-2-(2,4,6-trimethylphenoxy)pyridine-3-carboxamide], the EC30 result is on record as “+++ (“+++” means <3 uM)”.

For `CC(C)Oc1ccc(-c2ccc(C(=O)NS(=O)(=O)c3cccc(N)n3)c(N(C)C3CCCC3)n2)cn1` [Compound 1025, N-[(6-amino-2-pyridyl)sulfonyl]-2-[cyclopentyl(methyl)amino]-6-(6-isopropoxy-3-pyridyl)pyridine-3-carboxamide], the EC30 result is recorded as “+++ (“+++” means <3 uM)”.

Take `CC(C)=Cc1ccc(C(=O)NS(=O)(=O)c2cccc(N)n2)c(N2C[C@@H](C)CC2(C)C)n1` [Compound 1683, N-[(6-amino-2-pyridyl)sulfonyl]-6-(2-methylprop-1-enyl)-2-[(4S)-2,2,4-trimethylpyrrolidin-1-yl]pyridine-3-carboxamide]: the EC30 entry is “+++ (“+++” means <3 uM)”.

In the case of `Cc1cc(C)c(Oc2ncc(Cc3ccccc3)cc2C(=O)NS(=O)(=O)c2cccc(N)n2)c(C)c1` [Compound 1233, N-[(6-amino-2-pyridyl)sulfonyl]-5-benzyl-2-(2,4,6-trimethylphenoxy)pyridine-3-carboxamide], the EC30 entry is “++ (“++” means between 3 uM and 10 uM)”.

On to `CC(C)Oc1ccc(-c2nc(N3C[C@@H](C)CC3(C)C)ccc2C(=O)NS(=O)(=O)c2cccc(N)n2)cn1` [Compound 1436, N-[(6-amino-2-pyridyl)sulfonyl]-2-(6-isopropoxy-3-pyridyl)-6-[(4S)-2,2,4-trimethylpyrrolidin-1-yl]pyridine-3-carboxamide], for which the EC30 result is “++ (“++” means between 3 uM and 10 uM)”.

For the compound `Cc1cc(C)c(Oc2nc(C(F)(F)C(F)(F)F)ccc2C(=O)NS(=O)(=O)c2cccc(N)n2)c(C)c1` [Compound 853, N-[(6-amino-2-pyridyl)sulfonyl]-6-(1,1,2,2,2-pentafluoroethyl)-2-(2,4,6-trimethylphenoxy)pyridine-3-carboxamide], the EC30 entry is “+++ (“+++” means <3 uM)”.

On to `CC1CN(c2nc(-c3ccc(Cl)cc3)ccc2C(=O)NS(=O)(=O)c2cccc(N)n2)C(C)(C)C1` (centres unmarked) [Compound 1100, N-[(6-amino-2-pyridyl)sulfonyl]-6-(4-chlorophenyl)-2-(2,2,4-trimethylpyrrolidin-1-yl)pyridine-3-carboxamide], for which the EC30 entry is reported as “+++ (“+++” means <3 uM)”.

For `CC(C)COc1cc(F)cc(-c2ccc(C(=O)NS(=O)(=O)c3cccc(N)n3)c(N3CCC[C@@H]3C(C)(C)C)n2)c1` [Compound 1170, N-[(6-amino-2-pyridyl)sulfonyl]-2-[(2R)-2-tert-butylpyrrolidin-1-yl]-6-(3-fluoro-5-isobutoxy-phenyl)pyridine-3-carboxamide], the EC30 entry is on record as “+++ (“+++” means <3 uM)”.

`CC(C)Oc1ccc(-c2ccc(C(=O)NS(=O)(=O)c3cccc(N)n3)c(N3CCC(C(C)(C)C)C3)n2)cn1` (centres unmarked) [Compound 1206, N-[(6-amino-2-pyridyl)sulfonyl]-2-(3-tert-butylpyrrolidin-1-yl)-6-(6-isopropoxy-3-pyridyl)pyridine-3-carboxamide]: the EC30 entry was “++ (“++” means between 3 uM and 10 uM)”.

On to `CC(C)COc1cc(F)cc(-c2ccc(C(=O)NS(=O)(=O)c3cccc(N)n3)c(N3CCC(C)(C)[C@@H]3C)n2)c1` [Compound 1144, N-[(6-amino-2-pyridyl)sulfonyl]-6-(3-fluoro-5-isobutoxy-phenyl)-2-[(2S)-2,3,3-trimethylpyrrolidin-1-yl]pyridine-3-carboxamide], for which the EC30 result is given as “+++ (“+++” means <3 uM)”.

Turning to `CC(C)COc1cc(F)cc(-c2ccc(C(=O)NS(=O)(=O)c3cccc(N)n3)c(N3CC(C)CC(C)C3)n2)c1` (centres unmarked) [Compound 1013, N-[(6-amino-2-pyridyl)sulfonyl]-2-(3,5-dimethyl-1-piperidyl)-6-(3-fluoro-5-isobutoxy-phenyl)pyridine-3-carboxamide], the EC30 entry is listed as “+++ (“+++” means <3 uM)”.

As to `CCOCCOc1ccn(-c2ccc(C(=O)NS(=O)(=O)c3cccnc3N)c(N3C[C@@H](C)CC3(C)C)n2)n1` [Compound 1742, N-[(2-amino-3-pyridyl)sulfonyl]-6-[3-(2-ethoxyethoxy)pyrazol-1-yl]-2-[(4S)-2,2,4-trimethylpyrrolidin-1-yl]pyridine-3-carboxamide], the EC30 entry is reported as “+++ (“+++” means <3 uM)”.

`CC(C)COc1cc(F)cc(-c2ccc(C(=O)NS(=O)(=O)c3ccn[nH]3)c(N3CCCC3C)n2)c1` (centres unmarked) [Compound 1142, 6-(3-fluoro-5-isobutoxy-phenyl)-2-(2-methylpyrrolidin-1-yl)-N-(1H-pyrazol-5-ylsulfonyl)pyridine-3-carboxamide]: the EC30 entry is “++ (“++” means between 3 uM and 10 uM)”.

`CC(C)Oc1ccc(-c2ccc(C(=O)NS(=O)(=O)c3cccc(N)n3)c(N3C4CCC3CC4)n2)cn1` [Compound 903, N-[(6-amino-2-pyridyl)sulfonyl]-2-(7-azabicyclo[2.2.1]heptan-7-yl)-6-(6-isopropoxy-3-pyridyl)pyridine-3-carboxamide]: the EC30 result was “++ (“++” means between 3 uM and 10 uM)”.

Consider `Cc1cc(C)c(Oc2nc(C3=CC(=O)CC(C)(C)C3)ccc2C(=O)NS(=O)(=O)c2cccc(N)n2)c(C)c1` [Compound 1528, N-[(6-amino-2-pyridyl)sulfonyl]-6-(5,5-dimethyl-3-oxo-cyclohexen-1-yl)-2-(2,4,6-trimethylphenoxy)pyridine-3-carboxamide], for which the EC30 entry was “++ (“++” means between 3 uM and 10 uM)”.

In the case of `Cc1cc(C)c2c(c1)CCN2c1nc(-c2cc(F)cc(OCC(C)C)c2)ccc1C(=O)NS(=O)(=O)c1cccc(N)n1` [Compound 1572, N-[(6-amino-2-pyridyl)sulfonyl]-2-(5,7-dimethylindolin-1-yl)-6-(3-fluoro-5-isobutoxy-phenyl)pyridine-3-carboxamide], the EC30 entry is “+++ (“+++” means <3 uM)”.

On to `CC1CN(c2ncccc2C(=O)NS(=O)(=O)c2cccc(Oc3cccc4ccccc34)n2)C(C)(C)C1` (centres unmarked) [Compound 1751, N—[[6-(1-naphthyloxy)-2-pyridyl]sulfonyl]-2-(2,2,4-trimethylpyrrolidin-1-yl)pyridine-3-carboxamide], for which the EC30 entry was “+++ (“+++” means <3 uM)”.

On to `Cc1ccc(-c2nc(C(C)(C)C)ccc2C(=O)NS(=O)(=O)c2cccc(N)c2)c(F)c1` [Compound 1331, N-(3-aminophenyl)sulfonyl-6-tert-butyl-2-(2-fluoro-4-methyl-phenyl)pyridine-3-carboxamide], for which the EC30 result is listed as “+ (“+” means greater than 10 uM)”.

As for `COc1ncccc1S(=O)(=O)NC(=O)c1cc2ccc(C)cc2nc1N1C[C@@H](C)CC1(C)C` [Compound 1859, N-[(2-methoxy-3-pyridyl)sulfonyl]-7-methyl-2-[(4S)-2,2,4-trimethylpyrrolidin-1-yl]quinoline-3-carboxamide], the EC30 result was “+++ (“+++” means <3 uM)”.

The values above are taken from patent publication US10758534B2 (Vertex Pharmaceuticals Incorporated, priority 2014, dated 2020).
